Measurements from ChEMBL document CHEMBL1201862, “PubChem BioAssay data set” (2004).
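Five concentrations, 48 hours, 96-well plates. Abbreviation: GI50, concentration required for 50% inhibition of growth.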 Activity calls are given as the source filed them. No stated cut-off is given here; in the data, active = GI50 up to about 1.1 µM and inactive = higher.

Key:
Experiment in all cases: DTP human tumour cell line panel, 48 h
[1] = system: EKVX
[2] = system: U-251
[3] = system: SN12C
[4] = system: ACHN
[5] = system: RXF 393
[6] = system: RPMI-8226
[7] = system: SK-MEL-28
[8] = system: HCT-116
[9] = system: LOX IMVI
[10] = system: OVCAR-5
[11] = system: SF-295
[12] = system: CAKI-1
[13] = system: HL-60
[14] = system: MDA-N
[15] = system: SK-OV-3
[16] = system: NCI/ADR-RES
[17] = system: Hs-578T
[18] = system: A498
[19] = system: NCI-H522

Q: Which GI50 [1] does the source give for COP(=O)(OC)C(C)(C)NC(=O)NC(F)(F)F here?
A: Its GI50 is > 100 µM (inactive).

Q: And the GI50 [2]?
A: Its GI50 is > 100 µM (inactive).

Q: What about the GI50 [3] of the same compound?
A: Its GI50 is > 100 µM (inactive).

Q: And the GI50 [4]?
A: The GI50 was > 100 µM (inactive).

Q: And the GI50 [5]?
A: The GI50 was > 100 µM (inactive).

Q: What about the GI50 [6] of the same compound?
A: Its GI50 is > 100 µM (inactive).

Q: What about the GI50 [7] of the same compound?
A: Its GI50 is > 100 µM (inactive).

Q: What about the GI50 [8] of the same compound?
A: Its GI50 is > 100 µM (inactive).

Q: And the GI50 [9]?
A: Its GI50 is > 100 µM (inactive).

Q: And the GI50 [10]?
A: Its GI50 is > 100 µM (inactive).

Q: What about the GI50 [11] of the same compound?
A: The GI50 was > 100 µM (inactive).

Q: And the GI50 [12]?
A: Its GI50 is 0.01 µM (active).

Q: What about the GI50 [13] of the same compound?
A: The GI50 was > 100 µM (inactive).

Q: What about the GI50 [14] of the same compound?
A: The GI50 was > 100 µM (inactive).

Q: And the GI50 [15]?
A: The GI50 was > 100 µM (inactive).

Q: What about the GI50 [16] of the same compound?
A: The GI50 was > 100 µM (inactive).

Q: What about the GI50 [17] of the same compound?
A: The GI50 was 31.1 µM (inactive).

Q: With O=C(/C=C/c1ccc2c(c1)OCO2)NCc1ccco1 as the compound, how does the GI50 [1] read?
A: Its GI50 is 71.6 µM (inactive).

Q: And the GI50 [2]?
A: The GI50 was > 100 µM (inactive).

Q: And the GI50 [3]?
A: The GI50 was > 100 µM (inactive).

Q: And the GI50 [4]?
A: Its GI50 is > 100 µM (inactive).

Q: And the GI50 [7]?
A: The GI50 was > 100 µM (inactive).

Q: What about the GI50 [8] of the same compound?
A: The GI50 was > 100 µM (inactive).

Q: What about the GI50 [9] of the same compound?
A: The GI50 was > 100 µM (inactive).

Q: What about the GI50 [10] of the same compound?
A: The GI50 was > 100 µM (inactive).

Q: What about the GI50 [11] of the same compound?
A: The GI50 was > 100 µM (inactive).

Q: And the GI50 [12]?
A: The GI50 was > 100 µM (inactive).

Q: And the GI50 [14]?
A: Its GI50 is > 100 µM (inactive).

Q: And the GI50 [15]?
A: Its GI50 is > 100 µM (inactive).

Q: And the GI50 [16]?
A: Its GI50 is > 100 µM (inactive).

Q: And the GI50 [17]?
A: Its GI50 is > 100 µM (inactive).

Q: And the GI50 [18]?
A: The GI50 was 84.3 µM (inactive).

Q: Which results are given for Cc1c(Cl)ccc2c(=O)c3cccc(CC(=O)O)c3oc12?
A: GI50 [1]: > 100 µM (inactive); GI50 [19]: > 100 µM (inactive); GI50 [2]: > 100 µM (inactive); GI50 [3]: > 100 µM (inactive); GI50 [4]: > 100 µM (inactive); GI50 [6]: > 100 µM (inactive); GI50 [7]: > 100 µM (inactive); GI50 [8]: > 100 µM (inactive); GI50 [9]: > 100 µM (inactive); GI50 [11]: > 100 µM (inactive); GI50 [12]: > 100 µM (inactive); GI50 [13]: > 100 µM (inactive); GI50 [14]: > 100 µM (inactive); GI50 [16]: > 100 µM (inactive); GI50 [17]: > 100 µM (inactive); GI50 [18]: > 100 µM (inactive)

Q: How did the GI50 [1] turn out when Cc1cc(N2CCCCC2)nc2ccc(Cc3ccc4nc(N5CCCCC5)cc(C)c4c3)cc12 was run?
A: The GI50 was 18.2 µM (inactive).

Q: What about the GI50 [19] of the same compound?
A: Its GI50 is 83.2 µM (inactive).

Q: What about the GI50 [2] of the same compound?
A: The GI50 was > 100 µM (inactive).

Q: What about the GI50 [3] of the same compound?
A: Its GI50 is > 100 µM (inactive).

Q: What about the GI50 [4] of the same compound?
A: Its GI50 is > 100 µM (inactive).

Q: And the GI50 [5]?
A: Its GI50 is > 100 µM (inactive).

Q: And the GI50 [6]?
A: Its GI50 is 35.8 µM (inactive).

Q: What about the GI50 [7] of the same compound?
A: Its GI50 is > 100 µM (inactive).

Q: What about the GI50 [8] of the same compound?
A: The GI50 was 98.9 µM (inactive).

Q: And the GI50 [9]?
A: Its GI50 is > 100 µM (inactive).

Q: What about the GI50 [10] of the same compound?
A: The GI50 was > 100 µM (inactive).

Q: What about the GI50 [11] of the same compound?
A: Its GI50 is > 100 µM (inactive).

Q: What about the GI50 [12] of the same compound?
A: Its GI50 is > 100 µM (inactive).

Q: And the GI50 [14]?
A: The GI50 was > 100 µM (inactive).

Q: What about the GI50 [15] of the same compound?
A: Its GI50 is > 100 µM (inactive).

Q: And the GI50 [16]?
A: The GI50 was > 100 µM (inactive).

Q: What about the GI50 [17] of the same compound?
A: Its GI50 is > 100 µM (inactive).

Q: And the GI50 [18]?
A: Its GI50 is > 100 µM (inactive).

Q: Which GI50 [1] does the source give for CCN(CC)CCn1c(=O)c2ccccc2n2c3c(=O)n(C)c(=O)n(C)c3nc12 here?
A: The GI50 was 3.59 µM (inactive).

Q: What about the GI50 [19] of the same compound?
A: Its GI50 is 2.43 µM (inactive).

Q: And the GI50 [2]?
A: Its GI50 is 1.43 µM (inactive).

Q: And the GI50 [3]?
A: Its GI50 is 1.53 µM (inactive).

Q: And the GI50 [4]?
A: Its GI50 is 0.25 µM (active).

Q: What about the GI50 [5] of the same compound?
A: Its GI50 is 5.27 µM (inactive).

Q: And the GI50 [6]?
A: Its GI50 is 1.6 µM (inactive).

Q: And the GI50 [7]?
A: Its GI50 is 5.15 µM (inactive).

Q: What about the GI50 [8] of the same compound?
A: The GI50 was 1.55 µM (inactive).

Q: And the GI50 [9]?
A: The GI50 was 13.2 µM (inactive).

Q: What about the GI50 [10] of the same compound?
A: Its GI50 is 2.53 µM (inactive).

Q: What about the GI50 [11] of the same compound?
A: Its GI50 is 1.24 µM (inactive).

Q: What about the GI50 [12] of the same compound?
A: Its GI50 is 0.252 µM (active).

Q: And the GI50 [13]?
A: Its GI50 is 0.255 µM (active).

Q: And the GI50 [14]?
A: The GI50 was 4.85 µM (inactive).

Q: And the GI50 [15]?
A: Its GI50 is 1.37 µM (inactive).

Q: What about the GI50 [16] of the same compound?
A: The GI50 was 3.33 µM (inactive).

Q: What about the GI50 [17] of the same compound?
A: The GI50 was 2.01 µM (inactive).

Q: Which GI50 [1] does the source give for [N-]=[N+]=C(C(=O)C(=[N+]=[N-])C(=O)c1ccccc1)C(=O)c1ccccc1 here?
A: Its GI50 is > 100 µM (inactive).

Q: And the GI50 [19]?
A: Its GI50 is > 100 µM (inactive).

Q: And the GI50 [3]?
A: The GI50 was > 100 µM (inactive).

Q: What about the GI50 [4] of the same compound?
A: The GI50 was > 100 µM (inactive).

Q: And the GI50 [5]?
A: Its GI50 is > 100 µM (inactive).

Q: And the GI50 [6]?
A: The GI50 was > 100 µM (inactive).

Q: And the GI50 [7]?
A: Its GI50 is > 100 µM (inactive).

Q: What about the GI50 [8] of the same compound?
A: Its GI50 is > 100 µM (inactive).

Q: And the GI50 [9]?
A: Its GI50 is > 100 µM (inactive).

Q: And the GI50 [10]?
A: Its GI50 is > 100 µM (inactive).

Q: And the GI50 [11]?
A: The GI50 was > 100 µM (inactive).

Q: What about the GI50 [13] of the same compound?
A: The GI50 was > 100 µM (inactive).

Q: And the GI50 [14]?
A: Its GI50 is > 100 µM (inactive).

Q: And the GI50 [16]?
A: The GI50 was > 100 µM (inactive).

Q: And the GI50 [17]?
A: The GI50 was > 100 µM (inactive).

Q: Which results are given for CON(C)C(=O)C(C)NC(=O)OCc1ccccc1 (centres undefined)?
A: GI50 [1]: > 100 µM (inactive); GI50 [2]: > 100 µM (inactive); GI50 [3]: > 100 µM (inactive); GI50 [4]: > 100 µM (inactive); GI50 [5]: > 100 µM (inactive); GI50 [6]: > 100 µM (inactive); GI50 [7]: > 100 µM (inactive); GI50 [8]: > 100 µM (inactive); GI50 [10]: > 100 µM (inactive); GI50 [11]: > 100 µM (inactive); GI50 [13]: > 100 µM (inactive); GI50 [14]: > 100 µM (inactive); GI50 [15]: > 100 µM (inactive); GI50 [16]: > 100 µM (inactive); GI50 [17]: > 100 µM (inactive); GI50 [18]: > 100 µM (inactive)

Q: What does the source list for CCNC1=C(NC(=O)c2ccccc2)C(=O)c2ccccc2C1=O?
A: GI50 [19]: 11.2 µM (inactive); GI50 [2]: 33 µM (inactive); GI50 [3]: 42.8 µM (inactive); GI50 [5]: 24.2 µM (inactive); GI50 [6]: > 100 µM (inactive); GI50 [7]: 39.3 µM (inactive); GI50 [8]: 25.8 µM (inactive); GI50 [10]: > 100 µM (inactive); GI50 [11]: 32.4 µM (inactive); GI50 [13]: 36.3 µM (inactive); GI50 [14]: 4.9 µM (inactive); GI50 [15]: 24 µM (inactive); GI50 [16]: 16.7 µM (inactive); GI50 [17]: 38.7 µM (inactive)
